In ChEMBL document CHEMBL5150054, “Pyrazole-containing pharmaceuticals: target, pharmacological activity, and their SAR studies” (RSC Med Chem, 2022):

What was measured:
[1] = target: Plasma kallikrein (Homo sapiens, UniProt P03952); experiment: Inhibition of plasma kallikrein (unknown origin)
[2] = Inhibition of GABA receptor BZ domain (unknown origin); design: species or system Homo sapiens
[3] = Dissociation constant, pKa of compound; format: physicochemical
[4] = target: cGMP-specific 3',5'-cyclic phosphodiesterase (Homo sapiens, UniProt O76074)
Description: Inhibition of PDE5 (unknown origin)

Sequence of Plasma kallikrein (P03952 20-390 limits assumed): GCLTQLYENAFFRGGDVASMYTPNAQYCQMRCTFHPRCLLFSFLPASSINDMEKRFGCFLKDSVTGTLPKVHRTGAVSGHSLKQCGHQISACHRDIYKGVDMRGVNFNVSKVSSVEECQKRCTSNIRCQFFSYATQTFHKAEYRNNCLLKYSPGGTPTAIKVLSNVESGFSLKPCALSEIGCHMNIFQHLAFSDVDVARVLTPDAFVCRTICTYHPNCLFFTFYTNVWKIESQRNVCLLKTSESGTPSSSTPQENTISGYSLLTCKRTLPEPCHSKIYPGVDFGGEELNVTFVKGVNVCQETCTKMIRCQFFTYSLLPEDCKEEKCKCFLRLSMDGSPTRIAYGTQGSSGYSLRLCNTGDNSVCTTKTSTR
Sequence of Plasma kallikrein (P03952 391-638 limits assumed): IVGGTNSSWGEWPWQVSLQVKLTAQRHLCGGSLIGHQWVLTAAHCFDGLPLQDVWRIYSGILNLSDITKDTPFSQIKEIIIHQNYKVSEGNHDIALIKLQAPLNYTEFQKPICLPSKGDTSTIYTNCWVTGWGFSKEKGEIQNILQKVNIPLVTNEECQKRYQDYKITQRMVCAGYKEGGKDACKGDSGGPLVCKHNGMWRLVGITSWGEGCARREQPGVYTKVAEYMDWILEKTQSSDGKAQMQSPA

N#Cc1cccc([C@@H](NCC2CC2)c2ccc(F)c(NC(=O)c3cc(C(F)(F)F)nn3-c3cccc(CN)c3)c2)c1 [BEROTRALSTAT]
IC50 [1]: 1 nM

CCN(C(C)=O)c1cccc(-c2ccnc3c(C#N)cnn23)c1 [ZALEPLON]
IC50 [2]: 167 nM

CCCCc1nc(-c2ccccc2Cl)c(C(=O)O)n1Cc1ccc(-c2ccccc2-c2nn[nH]n2)cc1
pKa [3]: 2.5

CCCCc1nn(-c2ccccc2Cl)c(C(=O)O)c1Cc1ccc(-c2ccccc2-c2nn[nH]n2)cc1
pKa [3]: 7.1

CCCOc1ccc(S(=O)(=O)NCCC2CCCN2C)cc1-c1nc2c(CCC)nn(C)c2c(=O)[nH]1 (stereo not given)
IC50 [4]: 8.25 nM
